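Interpolation was linear, between the two tested concentrations surrounding the appropriate level; five concentrations were tested over 48 hours in 96-well plates. The concentration for 50% growth inhibition is given as GI50. TGI denotes the concentration required for complete inhibition of growth.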
How the values were obtained:
Experiment in all cases: NCI anticancer screen, dose series, 48 h
786-0 renal = tested on: 786-0 renal
A498 renal = tested on: A498 renal
A549 NSCLC = tested on: A549 NSCLC
ACHN renal = tested on: ACHN renal
BT-549 breast = tested on: BT-549 breast
CAKI-1 renal = tested on: CAKI-1 renal
CCRF-CEM leukemia = tested on: CCRF-CEM leukemia
COLO 205 colon = tested on: COLO 205 colon
DU-145 prostate = tested on: DU-145 prostate
EKVX NSCLC = tested on: EKVX NSCLC
HCC-2998 colon = tested on: HCC-2998 colon
HCT-116 colon = tested on: HCT-116 colon
HCT-15 colon = tested on: HCT-15 colon
HL-60(TB) leukemia = tested on: HL-60(TB) leukemia
HOP-62 NSCLC = tested on: HOP-62 NSCLC
HOP-92 NSCLC = tested on: HOP-92 NSCLC
HS 578T breast = tested on: HS 578T breast
HT29 colon = tested on: HT29 colon
IGROV1 ovarian = tested on: IGROV1 ovarian
K-562 leukemia = tested on: K-562 leukemia
KM12 colon = tested on: KM12 colon
LOX IMVI melanoma = tested on: LOX IMVI melanoma
M14 melanoma = tested on: M14 melanoma
MALME-3M melanoma = tested on: MALME-3M melanoma
MCF7 breast = tested on: MCF7 breast
MDA-MB-231 breast = tested on: MDA-MB-231 breast
MDA-MB-435 = tested on: MDA-MB-435
MOLT-4 leukemia = tested on: MOLT-4 leukemia
NCI-H226 lung = tested on: NCI-H226 lung
NCI-H23 lung = tested on: NCI-H23 lung
NCI-H460 lung = tested on: NCI-H460 lung
NCI-H522 lung = tested on: NCI-H522 lung
NCI/ADR-RES ovarian = tested on: NCI/ADR-RES ovarian
OVCAR-3 ovarian = tested on: OVCAR-3 ovarian
OVCAR-4 ovarian = tested on: OVCAR-4 ovarian
OVCAR-5 ovarian = tested on: OVCAR-5 ovarian
OVCAR-8 ovarian = tested on: OVCAR-8 ovarian
PC-3 prostate = tested on: PC-3 prostate
RPMI-8226 leukemia = tested on: RPMI-8226 leukemia
RXF 393 renal = tested on: RXF 393 renal
SF-268 CNS = tested on: SF-268 CNS
SF-295 CNS = tested on: SF-295 CNS
SF-539 CNS = tested on: SF-539 CNS
SK-MEL-2 melanoma = tested on: SK-MEL-2 melanoma
SK-MEL-28 melanoma = tested on: SK-MEL-28 melanoma
SK-MEL-5 melanoma = tested on: SK-MEL-5 melanoma
SK-OV-3 ovarian = tested on: SK-OV-3 ovarian
SN12C renal = tested on: SN12C renal
SNB-19 CNS = tested on: SNB-19 CNS
SNB-75 CNS = tested on: SNB-75 CNS
SR leukemia = tested on: SR leukemia
SW-620 colon = tested on: SW-620 colon
T-47D breast = tested on: T-47D breast
TK-10 renal = tested on: TK-10 renal
U251 CNS = tested on: U251 CNS
UACC-257 melanoma = tested on: UACC-257 melanoma
UACC-62 melanoma = tested on: UACC-62 melanoma
UO-31 renal = tested on: UO-31 renal

COc1ccc(-c2cc(-c3ccc(Nc4nc(Nc5ccc(Cl)cc5)nc(Nc5ccc(Cl)cc5)n4)cc3)nc(N)c2C#N)cc1
GI50 (786-0 renal): 2240 nM | TGI (786-0 renal): 5.68 µM | GI50 (A498 renal): 2300 nM | TGI (A498 renal): 5.84 µM | GI50 (A549 NSCLC): 3.64 µM | TGI (A549 NSCLC): > 100 µM | GI50 (ACHN renal): 803 nM | TGI (ACHN renal): 2180 nM | GI50 (BT-549 breast): 3.06 µM | TGI (BT-549 breast): 9.11 µM | GI50 (CAKI-1 renal): 1470 nM | TGI (CAKI-1 renal): 4.38 µM | GI50 (CCRF-CEM leukemia): 929 nM | TGI (CCRF-CEM leukemia): > 27.6 µM | GI50 (COLO 205 colon): 865 nM | TGI (COLO 205 colon): 2750 nM | GI50 (DU-145 prostate): 3.91 µM | TGI (DU-145 prostate): 17 µM | GI50 (EKVX NSCLC): 8.16 µM | TGI (EKVX NSCLC): > 21.9 µM | GI50 (HCC-2998 colon): 1850 nM | TGI (HCC-2998 colon): 4.55 µM | GI50 (HCT-116 colon): 1650 nM | TGI (HCT-116 colon): 3.65 µM | GI50 (HCT-15 colon): 1540 nM | TGI (HCT-15 colon): 5.24 µM | GI50 (HL-60(TB) leukemia): 866 nM | TGI (HL-60(TB) leukemia): 4.59 µM | GI50 (HOP-62 NSCLC): 11.9 µM | TGI (HOP-62 NSCLC): > 42.3 µM | GI50 (HOP-92 NSCLC): 1310 nM | TGI (HOP-92 NSCLC): 3.14 µM | GI50 (HS 578T breast): 1480 nM | TGI (HS 578T breast): 5.68 µM | GI50 (HT29 colon): 2250 nM | TGI (HT29 colon): 13 µM | GI50 (IGROV1 ovarian): 2250 nM | TGI (IGROV1 ovarian): 5.88 µM | GI50 (K-562 leukemia): 1610 nM | TGI (K-562 leukemia): 5.38 µM | GI50 (KM12 colon): 1950 nM | TGI (KM12 colon): 4.24 µM | GI50 (LOX IMVI melanoma): 1400 nM | TGI (LOX IMVI melanoma): 2730 nM | GI50 (M14 melanoma): 1970 nM | TGI (M14 melanoma): 4.36 µM | GI50 (MALME-3M melanoma): 1730 nM | TGI (MALME-3M melanoma): 3.49 µM | GI50 (MCF7 breast): 2590 nM | TGI (MCF7 breast): > 32.3 µM | GI50 (MDA-MB-231 breast): 1540 nM | TGI (MDA-MB-231 breast): 3.23 µM | GI50 (MDA-MB-435): 2220 nM | TGI (MDA-MB-435): 7.53 µM | GI50 (MOLT-4 leukemia): 702 nM | TGI (MOLT-4 leukemia): 3.56 µM | GI50 (NCI-H226 lung): 676 nM | TGI (NCI-H226 lung): 1890 nM | GI50 (NCI-H23 lung): 3.52 µM | TGI (NCI-H23 lung): > 87.7 µM | GI50 (NCI-H460 lung): 4.2 µM | TGI (NCI-H460 lung): > 54.2 µM | GI50 (NCI-H522 lung): 1750 nM | TGI (NCI-H522 lung): 5.53 µM | GI50 (NCI/ADR-RES ovarian): 13.3 µM | TGI (NCI/ADR-RES ovarian): > 100 µM | GI50 (OVCAR-3 ovarian): 1680 nM | TGI (OVCAR-3 ovarian): 3.18 µM | GI50 (OVCAR-4 ovarian): 2510 nM | TGI (OVCAR-4 ovarian): > 100 µM | GI50 (OVCAR-5 ovarian): 4.14 µM | TGI (OVCAR-5 ovarian): 24 µM | GI50 (OVCAR-8 ovarian): 2120 nM | TGI (OVCAR-8 ovarian): > 51.2 µM | GI50 (PC-3 prostate): 982 nM | GI50 (RPMI-8226 leukemia): 931 nM | TGI (RPMI-8226 leukemia): > 21.9 µM | GI50 (RXF 393 renal): 491 nM | TGI (RXF 393 renal): 1920 nM | GI50 (SF-268 CNS): 2880 nM | TGI (SF-268 CNS): 8.38 µM | GI50 (SF-295 CNS): 1680 nM | TGI (SF-295 CNS): 13.4 µM | GI50 (SF-539 CNS): 2020 nM | TGI (SF-539 CNS): 4.15 µM | GI50 (SK-MEL-2 melanoma): 1660 nM | TGI (SK-MEL-2 melanoma): 3.2 µM | GI50 (SK-MEL-28 melanoma): 490 nM | TGI (SK-MEL-28 melanoma): 1220 nM | GI50 (SK-MEL-5 melanoma): 1780 nM | TGI (SK-MEL-5 melanoma): 3.65 µM | GI50 (SK-OV-3 ovarian): 8.71 µM | TGI (SK-OV-3 ovarian): > 28.1 µM | GI50 (SN12C renal): 2580 nM | TGI (SN12C renal): > 100 µM | TGI (SNB-19 CNS): > 24.1 µM | GI50 (SNB-75 CNS): 1400 nM | TGI (SNB-75 CNS): 3.5 µM | GI50 (SR leukemia): 485 nM | TGI (SR leukemia): 3.29 µM | GI50 (SW-620 colon): 666 nM | TGI (SW-620 colon): 1370 nM | GI50 (T-47D breast): 894 nM | TGI (T-47D breast): 5.39 µM | GI50 (TK-10 renal): 2080 nM | TGI (TK-10 renal): 3.77 µM | GI50 (U251 CNS): 2290 nM | TGI (U251 CNS): 6.58 µM | GI50 (UACC-257 melanoma): 1790 nM | TGI (UACC-257 melanoma): 3.63 µM | GI50 (UACC-62 melanoma): 2640 nM | TGI (UACC-62 melanoma): 10.6 µM | GI50 (UO-31 renal): 1570 nM | TGI (UO-31 renal): 3.26 µM

From PubChem BioAssay (NCI)
